Here are results for 29 compounds from patent publication US20220259193A1, “KCNT1 INHIBITORS AND METHODS OF USE” (Praxis Precision Medicines, Inc., priority 2019, published 2022).

Structures are written as SMILES.

In the experiment the target is T1, KCNT1 (KNa1.1, Slack) (Homo sapiens, UniProt Q5JUK3).
T1 construct: expressed in transfected cells; host or cells: HEK-TREX (tetracycline-inducible HEK cell line)
T1 sequence (Q5JUK3 1-1230): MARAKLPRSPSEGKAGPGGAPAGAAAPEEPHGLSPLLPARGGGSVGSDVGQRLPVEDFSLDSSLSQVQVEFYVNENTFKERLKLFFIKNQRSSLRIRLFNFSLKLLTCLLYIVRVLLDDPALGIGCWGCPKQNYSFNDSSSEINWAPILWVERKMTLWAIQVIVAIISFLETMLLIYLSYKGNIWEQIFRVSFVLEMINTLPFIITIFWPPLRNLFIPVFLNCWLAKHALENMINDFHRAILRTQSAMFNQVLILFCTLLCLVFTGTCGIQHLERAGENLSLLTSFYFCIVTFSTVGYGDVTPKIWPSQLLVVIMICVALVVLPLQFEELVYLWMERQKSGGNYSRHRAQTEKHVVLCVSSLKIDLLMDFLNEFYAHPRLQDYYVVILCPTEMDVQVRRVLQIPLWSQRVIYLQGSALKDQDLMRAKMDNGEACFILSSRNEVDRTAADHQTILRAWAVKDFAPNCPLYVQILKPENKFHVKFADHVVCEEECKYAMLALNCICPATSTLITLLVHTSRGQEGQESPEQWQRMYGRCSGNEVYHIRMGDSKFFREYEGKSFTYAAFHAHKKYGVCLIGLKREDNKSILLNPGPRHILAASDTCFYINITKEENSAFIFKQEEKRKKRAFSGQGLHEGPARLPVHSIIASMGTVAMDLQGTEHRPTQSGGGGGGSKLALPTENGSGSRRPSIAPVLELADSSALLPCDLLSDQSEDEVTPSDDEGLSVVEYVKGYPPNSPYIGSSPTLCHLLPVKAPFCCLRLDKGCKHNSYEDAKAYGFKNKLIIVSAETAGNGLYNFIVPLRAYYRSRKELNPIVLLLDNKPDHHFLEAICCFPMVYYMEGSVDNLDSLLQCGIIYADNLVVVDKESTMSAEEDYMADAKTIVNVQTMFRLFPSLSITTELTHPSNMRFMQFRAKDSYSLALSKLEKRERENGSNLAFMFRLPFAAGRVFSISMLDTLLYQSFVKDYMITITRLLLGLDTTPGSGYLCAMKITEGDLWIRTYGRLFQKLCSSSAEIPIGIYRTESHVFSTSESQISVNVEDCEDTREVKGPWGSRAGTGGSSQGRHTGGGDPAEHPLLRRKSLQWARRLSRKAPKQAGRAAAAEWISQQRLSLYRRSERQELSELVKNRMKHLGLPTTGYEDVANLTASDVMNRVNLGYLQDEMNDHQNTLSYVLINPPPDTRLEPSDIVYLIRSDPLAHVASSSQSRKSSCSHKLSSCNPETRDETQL
Description: KCNT1 patch clamp assay (SyncroPatch 384PE automated patch clamp). The format is cell-based. The conditions noted are these: tetracycline inducible HEK-TREX cell line; perforated patch; step from −80 mV to 0 mV; room temperature; read-out: KCNT1-WT IC50. How it is done:
KCNT1—Patch Clamp Assay Inhibition of KCNT1 (KNa1.1, Slack) was evaluated using a tetracycline inducible cell line (HEK-TREX). Currents were recorded using the SyncroPatch 384PE automated, patch clamp system. Pulse generation and data collection were performed with PatchController384 V1.3.0 and DataController384 V1.2.1 (Nanion Technologies). The access resistance and apparent membrane capacitance were estimated using built-in protocols. Current were recorded in perforated patch mode (10 μM escin) from a population of cells. […] The cells were allowed to recover in the cell hotel prior to experimentation. Currents were recorded at room temperature. […] The extracellular solution was used as the wash, reference and compound delivery solution. […] Escin is made at a 5 mM stock in water, aliquoted, and stored at −20° C. The compound plate was created at 2× concentrated in the extracellular solution. The compound was diluted to 1:2 when added to the recording well. The amount of DMSO in the extracellular solution was held constant at the level used for the highest tested concentration. A holding potential of −80 mV with a 100 ms step to 0 mV was used. […] The average mean current from 3 sweeps was calculated and the % inhibition of each compound was calculated. The % Inhibition as a function of the compound concentration was fit with a Hill equation to derive IC50, slope, min and max parameters.
A general note: In patch-clamp work, channel activity is measured electrically.
What is called IC50 is the concentration that gives 50% inhibition. Take `CC(NC(=O)c1cc(C(F)(F)F)nn1C)c1nc(-c2ccnc(N3CCCCC3)c2)no1` (single isomer, unassigned) [Compound 210]: the half-inhibitory concentration (IC50) was at most 1000 nM.

For the compound `CCOc1cc(-c2noc([C@H](C)NC(=O)OC(C)(C)C)n2)ccn1` [Compound 290, tert-butyl (S)-(1-(3-(2-ethoxypyridin-4-yl)-1,2,4-oxadiazol-5-yl)ethyl)carbamate], the concentration for half-maximal inhibition (IC50) was at most 1000 nM.

Take `CC(NC(=O)c1cc(C2CC2)nn1C)c1nc(-c2cccc(Cl)c2)no1` (centres unmarked) [Compound 6]: the IC50 is at most 1000 nM.

As to `CNC(=O)C[C@H](NC(=O)c1cc(C(F)(F)F)nn1C)c1nc(-c2cccc(F)c2)no1` (single isomer, unassigned) [Compound 115], the half-maximal inhibitory concentration (IC50) was at least 20000 nM.

Regarding `CC(C)OCc1cc(-c2noc([C@H](C)NC(=O)c3cc(C(F)(F)F)nn3C)n2)ccn1` [Compound 259, N-[(1S)-1-[3-[2-(isopropoxymethyl)-4-pyridyl]-1,2,4-oxadiazol-5-yl]ethyl]-2-methyl-5-(trifluoromethyl)pyrazole-3-carboxamide], the half-maximal inhibitory concentration (IC50) lay within 1000 to 20000 nM.

As to `Cc1cccc(-c2noc(C(C)NC(=O)c3cc(C(F)F)nn3C)n2)c1` (centres unmarked) [Compound 21], the IC50 was at most 1000 nM.

As for `CCOc1cc(-c2noc([C@H](C)NC(=O)c3cc(C(F)(F)F)nn3C)n2)ccn1` [Compound 205, (S)—N-(1-(3-(2-ethoxypyridin-4-yl)-1,2,4-oxadiazol-5-yl)ethyl)-1-methyl-3-(trifluoromethyl)-1H-pyrazole-5-carboxamide], the IC50 was at most 1000 nM.

As for `C[C@H](NC(=O)c1cc(C(F)(F)F)nn1CCN(C)C)c1nc(-c2ccnc(C(F)(F)F)c2)no1` [Compound 243, (S)-1-(2-(dimethylamino)ethyl)-3-(trifluoromethyl)-N-(1-(3-(2-(trifluoromethyl)pyridin-4-yl)-1,2,4-oxadiazol-5-yl)ethyl)-1H-pyrazole-5-carboxamide], the IC50 was at most 1000 nM.

Take `COCCn1nc(C(F)(F)F)cc1C(=O)N[C@@H](C)c1nc(-c2ccnc(C(F)(F)F)c2)no1` [Compound 239, (S)-1-(2-methoxyethyl)-3-(trifluoromethyl)-N-(1-(3-(2-(trifluoromethyl)pyridin-4-yl)-1,2,4-oxadiazol-5-yl)ethyl)-1H-pyrazole-5-carboxamide]: the half-inhibitory concentration (IC50) was at most 1000 nM.

As for `Cc1cccc(-c2noc([C@@H](C)NC(=O)c3cn(C(C)C)nc3C)n2)c1` [Compound 232, 1-isopropyl-3-methyl-N-[(1R)-1-[3-(m-tolyl)-1,2,4-oxadiazol-5-yl]ethyl]pyrazole-4-carboxamide], the concentration for half-maximal inhibition (IC50) was at least 20000 nM.

In the case of `CCn1cc(C(=O)N[C@@H](C)c2nc(-c3cccc(F)c3)no2)c(C(F)(F)F)n1` [Compound 165], the concentration for half-maximal inhibition (IC50) was at most 1000 nM.

On to `Cc1nn(C(C)C)cc1C(=O)NC(C)c1nc(-c2ccc(Cl)cc2)no1` (centres unmarked) [Compound 97], for which the IC50 was at most 1000 nM.

As for `CC[C@H](NC(=O)OC(C)(C)C)c1nc(-c2ccnc(C3CC3)c2)no1` [Compound 247, tert-butyl (S)-(1-(3-(2-cyclopropylpyridin-4-yl)-1,2,4-oxadiazol-5-yl)propyl)carbamate], the half-maximal inhibitory concentration (IC50) was at most 1000 nM.

Take `Cc1cccc(-c2noc(C(C)NC(=O)c3cc(C(C)(C)C)nn3C)n2)c1` (centres unmarked) [Compound 13]: the IC50 was at most 1000 nM.

With `Cn1nc(C(F)(F)F)cc1C(=O)NC1(c2nc(-c3cccc(F)c3)no2)CCOC1` (centres unmarked) [Compound 148], the half-inhibitory concentration (IC50) is 1000 to 20000 nM.

`CC[C@H](NC(=O)c1cc(C(F)(F)F)nn1C(F)F)c1nc(-c2ccnc(C)c2)no1` [Compound 221, (S)-1-(difluoromethyl)-N-(1-(3-(2-methylpyridin-4-yl)-1,2,4-oxadiazol-5-yl)propyl)-3-(trifluoromethyl)-1H-pyrazole-5-carboxamide]: the half-inhibitory concentration (IC50) is at most 1000 nM.

For `CC(NC(=O)c1cc(C2CC2)nn1C)c1nc(-c2cccc(C(F)(F)F)c2)no1` (centres unmarked) [Compound 12], the IC50 was at most 1000 nM.

Take `C[C@H](NC(=O)OC(C)(C)C)c1nc(-c2ccnc(OCC(F)F)c2)no1` [Compound 294, tert-butyl (S)-(1-(3-(2-(2,2-difluoroethoxy)pyridin-4-yl)-1,2,4-oxadiazol-5-yl)ethyl)carbamate]: the IC50 fell in the range of 1000 to 20000 nM.

For the compound `C[C@H](NC(=O)c1cc(C(F)(F)F)nn1C)c1nc(-c2ccnc(CN3CCCC3)c2)no1` [Compound 261, (S)-1-methyl-N-(1-(3-(2-(pyrrolidin-1-ylmethyl)pyridin-4-yl)-1,2,4-oxadiazol-5-yl)ethyl)-3-(trifluoromethyl)-1H-pyrazole-5-carboxamide], the half-maximal inhibitory concentration (IC50) is at least 20000 nM.

In the case of `C[C@H](NC(=O)c1ccnn1C1CC1)c1nc(-c2ccnc(C3CC3)c2)no1` [Compound 305, 2-cyclopropyl-N-[(1S)-1-[3-(2-cyclopropyl-4-pyridyl)-1,2,4-oxadiazol-5-yl]ethyl]pyrazole-3-carboxamide], the 50% inhibitory concentration (IC50) is at most 1000 nM.

In the case of `C[C@H](NC(=O)c1cc(C(F)(F)F)nn1C)c1nc(-c2ccnc(N3CCCCC3)c2)no1` (single isomer, unassigned) [Compound 209], the half-maximal inhibitory concentration (IC50) is at most 1000 nM.

As for `Cn1nc(C(F)(F)F)cc1C(=O)NC(CNC(=O)OCc1ccccc1)c1nc(-c2cccc(F)c2)no1` (centres unmarked) [Compound 157, benzyl N-[2-[3-(3-fluorophenyl)-1,2,4-oxadiazol-5-yl]-2-[[2-methyl-5-(trifluoromethyl)pyrazole-3-carbonyl]amino]ethyl]carbamate], the IC50 is 1000 to 20000 nM.

Take `Cn1nc(C(F)(F)F)cc1C(=O)NC(CS(C)(=O)=O)c1nc(-c2cccc(F)c2)no1` (centres unmarked) [Compound 171]: the IC50 is 1000 to 20000 nM.

On to `Cn1nc(C(F)(F)F)cc1C(=O)NCc1nc(-c2ccnc(C(F)(F)F)c2)no1` [Compound 300, 2-methyl-5-(trifluoromethyl)-N-[[3-[2-(trifluoromethyl)-4-pyridyl]-1,2,4-oxadiazol-5-yl]methyl]pyrazole-3-carboxamide], for which the IC50 is at most 1000 nM.

`C[C@@H](NC(=O)c1cn(C)nc1C(F)F)c1nc(-c2cccc(F)c2)no1` [Compound 187, (R)-3-(difluoromethyl)-N-(1-(3-(3-fluorophenyl)-1,2,4-oxadiazol-5-yl)ethyl)-1-methyl-1H-pyrazole-4-carboxamide]: the concentration for half-maximal inhibition (IC50) was at least 20000 nM.

As to `CC(NC(=O)c1cc(C(F)(F)F)nn1C)c1nc(-c2cccc(CO)c2)no1` (centres unmarked) [Compound 176, N-(1-(3-(3-(hydroxymethyl)phenyl)-1,2,4-oxadiazol-5-yl)ethyl)-1-methyl-3-(trifluoromethyl)-1H-pyrazole-5-carboxamide], the IC50 lay in the range of 1000 to 20000 nM.

Take `CC[C@H](NC(=O)OC(C)(C)C)c1nc(-c2ccnc(C)c2)no1` [Compound 284, tert-butyl (S)-(1-(3-(2-methylpyridin-4-yl)-1,2,4-oxadiazol-5-yl)propyl)carbamate]: the IC50 is 1000 to 20000 nM.

With `Cn1nc(C(F)(F)F)cc1C(=O)NC(CC#N)c1nc(-c2cccc(F)c2)no1` (centres unmarked) [Compound 141], the IC50 is 1000 to 20000 nM.

Take `CC(C)Oc1cc(-c2noc([C@H](C)NC(=O)c3cc(-c4ccc(F)cc4)nn3C)n2)ccn1` [Compound 223, (S)-3-(4-fluorophenyl)-N-(1-(3-(2-isopropoxypyridin-4-yl)-1,2,4-oxadiazol-5-yl)ethyl)-1-methyl-1H-pyrazole-5-carboxamide]: the IC50 is at most 1000 nM.
